Peptide text beside a SMILES is read from it. * marks the point of attachment. Cbz = O=C(OCc1ccccc1)*; CH2F = FC*
Legend:
Format in all cases: cell-based, mouse
BMDMs [1] = conditions: N15m1-infected BMDMs, 24 hpi; zVAD 20 μM, Nec-1 25 μM, VX-765 20 μM
Description: Cell death assays. Cell viability and Caspase 3/7 activity were measured using CellTiter Glo (G7571, Promega) or CaspaseGlo 3/7 (G8091, Promega) respectively, according to the manufacturer's protocol, with modification.
Cell death assays. Cell viability and Caspase 3/7 activity were measured using CellTiter Glo (G7571, Promega) or CaspaseGlo 3/7 (G8091, Promega) respectively, according to the manufacturer's protocol, with modification. Briefly, 3.0×10^5 BMDMs/well wereplated in 24-well plates and infected at an MOI of 0.1 for 1 h in serum-free media. Media was replaced with complete media, or for addition of chemical inhibitors, viral inoculum was replaced with completed BMM media containing indicated concentration of inhibitors. Infected BMDMs were incubated for 24 h at 37° C./5% CO2. BMDMs were washed twice with 1×PBS and lysed with 100 μL Glo reagent/medium mixture (1:1). 50 μL of cell lysate was used for measuring the luminescence signal. Standard deviation and unpaired t test were performed on technical triplicates and data are representative of three independent experiments.

BMDMs [2] = tested on: BMDMs
2′5′-OAS/RNaseL system = conditions: N15m1-infected BMDMs, 18 hpi; zVAD 20 μM, C16 1 μM
Description: Bioanalyzer RNA analysis. Equal amounts of total RNA purified from BMDMs were analyzed on an Agilent 2100 Bioanalyzer using RNA Nano LabChips.

COC(=O)C[C@H](NC(=O)[C@H](C)NC(=O)[C@@H](NC(=O)OCc1ccccc1)C(C)C)C(=O)CF [zVAD] (Cbz-Val-Ala-Asp(OMe)-CH2F)
effect of inhibitor on virus-induced cell death (BMDMs [1]): prevented virus-induced cell death
effect of inhibitor on caspase 3/7 activity in N15m1-infected BMDMs (BMDMs [2]): inhibited
effect of inhibitor on degradation of host rRNA (2′5′-OAS/RNaseL system): not inhibited
